The target of data set [1] is T1, Amine oxidase [flavin-containing] A (Homo sapiens, UniProt P21397).
T1 sequence (P21397 whole entry): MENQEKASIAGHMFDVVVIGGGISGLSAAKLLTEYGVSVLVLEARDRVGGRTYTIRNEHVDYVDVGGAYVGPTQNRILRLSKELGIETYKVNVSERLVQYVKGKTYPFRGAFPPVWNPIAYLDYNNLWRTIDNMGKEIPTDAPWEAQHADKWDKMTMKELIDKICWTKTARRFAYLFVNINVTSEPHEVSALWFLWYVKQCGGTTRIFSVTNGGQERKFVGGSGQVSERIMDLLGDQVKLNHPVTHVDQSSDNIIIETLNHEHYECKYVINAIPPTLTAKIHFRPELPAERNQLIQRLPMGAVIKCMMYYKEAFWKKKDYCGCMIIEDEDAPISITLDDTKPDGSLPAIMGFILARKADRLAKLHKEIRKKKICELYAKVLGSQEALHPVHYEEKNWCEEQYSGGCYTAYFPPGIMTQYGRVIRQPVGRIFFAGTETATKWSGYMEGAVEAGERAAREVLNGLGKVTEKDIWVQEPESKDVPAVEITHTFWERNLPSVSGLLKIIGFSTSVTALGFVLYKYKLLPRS

In data set [2] the target is T2, Amine oxidase [flavin-containing] B (Homo sapiens, UniProt P27338).
T2 sequence (P27338 whole entry): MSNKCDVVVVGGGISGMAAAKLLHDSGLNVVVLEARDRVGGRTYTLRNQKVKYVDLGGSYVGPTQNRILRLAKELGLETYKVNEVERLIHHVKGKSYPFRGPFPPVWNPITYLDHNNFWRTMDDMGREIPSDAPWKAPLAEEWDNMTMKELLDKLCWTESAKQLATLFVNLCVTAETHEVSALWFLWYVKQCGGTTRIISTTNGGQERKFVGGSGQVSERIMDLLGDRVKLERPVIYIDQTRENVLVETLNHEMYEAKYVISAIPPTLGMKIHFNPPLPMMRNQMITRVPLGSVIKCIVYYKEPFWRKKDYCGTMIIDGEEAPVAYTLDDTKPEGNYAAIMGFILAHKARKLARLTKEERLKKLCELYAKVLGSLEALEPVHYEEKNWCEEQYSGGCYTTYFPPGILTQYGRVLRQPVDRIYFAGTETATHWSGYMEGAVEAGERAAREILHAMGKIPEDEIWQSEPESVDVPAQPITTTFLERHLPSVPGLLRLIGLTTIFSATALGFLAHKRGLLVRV

In data set [3] the target is T1, Amine oxidase [flavin-containing] A. Briefly: Reversible inhibition of human recombinant MAO-A using kynuramine substrate assessed as enzyme activity recovered at 4 times of IC50 concentration incubated for 15 mins and subsequently dialyzed for 24 hrs relative to control. The arrangement: scale not given: the % may be the effect or the level left. The conditions noted are these: 0.25 h.

Data set [4] shares this target. Briefly: Reversible inhibition of human recombinant MAO-A using kynuramine substrate assessed as enzyme activity recovered at 4 times of IC50 concentration incubated for 15 mins and subsequently dialyzed for 24 hrs relative to control in presence of pargyline. The arrangement: scale not given: the % may be the effect or the level left. The settings on record: 0.25 h.

Data set [5] has as its target T2, Amine oxidase [flavin-containing] B. Nature of the data set: Inhibition of human recombinant MAO-B assessed as kynuramine substrate by Lineweaver-Burk plot analysis.
Data set [6] shares this target. Nature of the data set: Reversible inhibition of human recombinant MAO-B using kynuramine substrate assessed as enzyme activity recovered at 4 times of IC50 concentration incubated for 15 mins and subsequently dialyzed for 24 hrs relative to control in presence of (R)-deprenyl. The arrangement: scale not given: the % may be the effect or the level left. The settings on record: 0.25 h.

Data set [7] shares this target. Briefly: Reversible inhibition of human recombinant MAO-B using kynuramine substrate assessed as enzyme activity recovered at 4 times of IC50 concentration incubated for 15 mins and subsequently dialyzed for 24 hrs relative to control. The arrangement: scale not given: the % may be the effect or the level left. The settings on record: 0.25 h.
Data set [8] deals with T1, Amine oxidase [flavin-containing] A. Nature of the data set: Reversible inhibition of human recombinant MAO-A using kynuramine substrate assessed as enzyme activity recovered at 4 times of IC50 concentration incubated for 15 mins relative to control. The settings on record: 0.25 h. The arrangement: scale not given: the % may be the effect or the level left.
Data set [9] has as its target T2, Amine oxidase [flavin-containing] B. Briefly: Reversible inhibition of human recombinant MAO-B using kynuramine substrate assessed as enzyme activity recovered at 4 times of IC50 concentration incubated for 15 mins relative to control. The arrangement: scale not given: the % may be the effect or the level left. The settings on record: 0.25 h.
Data set [10] addresses T1, Amine oxidase [flavin-containing] A. Nature of the data set: Inhibition of human recombinant MAO-A assessed as kynuramine substrate by Lineweaver-Burk plot analysis.

The term IC50 denotes the concentration that inhibits the measured activity by half. A word on the Ki: it is a measure of affinity in units of concentration, obtained from inhibition or displacement.

SMILES strings stand for the structures. Bounds are passed on as bounds.

Consider `N#Cc1ccc(OCc2ccc(Br)cc2)cc1C#N`, for which the midpoint of inhibition in data set [1], the IC50, lay at 6.6 nM.

As to `COc1ccc(-c2c(Cl)c3cc(C#N)c(C#N)cc3n2C)cc1`, the IC50 in [2] was greater than 100000 nM; in data set [1], 129 nM.

As for `Cc1ccc(-c2c(Cl)c3cc(C#N)c(C#N)cc3n2C)cc1`, the half-maximal inhibitory concentration (IC50) in data set [2] is greater than 100000 nM; in data set [1], 19400 nM.

On to `Cn1c(-c2cccs2)c(Cl)c2cc(C#N)c(C#N)cc21`, for which the values for the IC50 in data set [2] and in data set [1] were greater than 100000 nM and 35 nM, respectively.

For the molecule `N#Cc1cc2c(Br)c(-c3ccccc3)n(O)c2cc1C#N`, the IC50 came to 11900 nM in data set [2] and 3480 nM in data set [1].

`COc1ccc(-c2c(Br)c3cc(C#N)c(C#N)cc3n2O)cc1`: the IC50 in data set [2] turned out to be 1520 nM; in data set [1], 726 nM.

For the molecule `Cc1ccc(-c2c(Br)c3cc(C#N)c(C#N)cc3n2O)cc1`, the IC50 in data set [2] amounted to 2860 nM; in data set [1] it was 2190 nM.

As to `COc1ccc(-c2c(Br)c3cc(C#N)c(C#N)cc3n2OC)cc1`, the IC50 in [2] and in data set [1] was greater than 100000 nM in each case.

`N#Cc1cc2[nH]c(-c3ccccc3)c(Cl)c2cc1C#N`: the IC50 in data set [2] came to 144 nM; in [1], 121 nM.

For `COc1ccc(-c2[nH]c3cc(C#N)c(C#N)cc3c2Cl)cc1`, the IC50 came out at 20 nM in data set [2] and 4 nM in [1].

For the molecule `Cc1ccc(-c2[nH]c3cc(C#N)c(C#N)cc3c2Cl)cc1`, the IC50 amounted to 17 nM in [2] and 14 nM in data set [1]. The Activity in data set [3] is listed as 77%; in data set [4], 1.6%; in [6], 3.1%; in data set [7] it was 78%; in data set [8], 43%; in [9] it was 37%. The Ki was 16 nM in data set [5] and 18 nM in [10].

As to `N#Cc1cc2[nH]c(-c3cccs3)c(Cl)c2cc1C#N`, the IC50 stood at 1270 nM in data set [2] and 118 nM in [1].

For the molecule `Cn1c(-c2ccccc2)c(Cl)c2cc(C#N)c(C#N)cc21`, the IC50 is greater than 100000 nM in data set [2] and 142 nM in data set [1].

In the case of `N#Cc1ccc(OC/C=C/c2ccccc2)cc1C#N`, the IC50 in data set [2] worked out at 642 nM.

Values taken from ChEMBL document CHEMBL3396993, “Inhibition of monoamine oxidase by indole-5,6-dicarbonitrile derivatives” (Bioorg Med Chem Lett, 2015).
